Patent US9051342B2 (priority 2004, dated 2015)

| Structure (SMILES) | melting point [°C] |
| --- | --- |
| O=C(O)c1cccc(-n2cc(-c3ccc4c(c3)OCO4)cn2)c1 [Compound 111, 3-(4-Benzo[1,3]dioxol-5-yl-pyrazol-1-yl)-benzoic acid] | 264 to 265 |
| COc1cccc(-c2cnn(-c3cccc(C(=O)O)c3)c2)c1 [Compound 112, 3-[4-(3-Methoxy-phenyl)-pyrazol-1-yl]-benzoic acid] | 157 to 158 |
| O=C(O)c1cccc(-n2cc(-c3ccccn3)cn2)c1 [Compound 113, 3-(4-Pyridin-2-yl-pyrazol-1-yl)-benzoic acid] | 243 to 245 |
| O=C(O)c1ccc(-n2cc(-c3ccccn3)cn2)cc1 [Compound 114, 4-(4-Pyridin-2-yl-pyrazol-1-yl)-benzoic acid] | 260 to 262 |
| O=C(O)c1cccc(-n2cc(-c3ccncc3)cn2)c1 [Compound 115, 3-(4-Pyridin-4-yl-pyrazol-1-yl)-benzoic acid] | 300 to 302 |
| O=C(O)c1ccc(-n2cc(-c3ccncc3)cn2)cc1 [Compound 116, 4-(4-Pyridin-4-yl-pyrazol-1-yl)-benzoic acid] | > 350 |
| O=C(O)c1cccc(-n2cc(-c3ccncn3)cn2)c1 [Compound 117, 3-(4-Pyrimidin-4-yl-pyrazol-1-yl)-benzoic acid] | 297 to 299 |
| O=C(O)c1ccc(-n2cc(-c3ccncn3)cn2)cc1 [Compound 118, 4-(4-Pyrimidin-4-yl-pyrazol-1-yl)-benzoic acid] | > 350 |
| O=C(O)c1cccc(-n2cc(-c3cnccn3)cn2)c1 [Compound 119, 3-(4-Pyrazin-2-yl-pyrazol-1-yl)-benzoic acid] | 310 to 311 |
| O=C(O)c1ccc(-n2cc(-c3cnccn3)cn2)cc1 [Compound 120, 4-(4-Pyrazin-2-yl-pyrazol-1-yl)-benzoic acid] | 319 to 321 |
| O=C(O)c1cccc(-n2cc(-c3nc4ccccc4o3)cn2)c1 [Compound 121, 3-(4-Benzooxazol-2-yl-pyrazol-1-yl)-benzoic acid] | 331 to 333 |
| O=C(O)c1cccc(-n2cc(-c3cnc4ccccc4n3)cn2)c1 [Compound 122, 3-(4-Quinoxalin-2-yl-pyrazol-1-yl)-benzoic acid] | 325 to 326 |
| O=C(O)c1cccc(-n2cc(-c3ccc4ccccc4n3)cn2)c1 [Compound 123, 3-(4-Quinolin-2-yl-pyrazol-1-yl)-benzoic add] | 250 to 252 |
| O=C(O)c1cccc(-c2ccn(-c3ccc(OC(F)F)cc3)n2)c1 [Compound 124, 3-[1-(4-Difluoromethoxy-phenyl)-1H-pyrazol-3-yl]-benzoic acid] | 182 to 183 |
| CCc1ccc(-n2ccc(-c3cccc(C(=O)O)c3)c2)cc1 [Compound 125, 3-[1-(4-Ethyl-phenyl)-1H-pyrrol-3-yl]-benzoic acid] | 190 to 192 |
| O=C(O)c1ccc(-c2ccn(-c3ccc(F)c(F)c3)c2)cc1 [Compound 127, 4-[1-(3,4-Difluoro-phenyl)-1H-pyrrol-3-yl]-benzoic acid] | 231 to 233 |
| O=C(O)c1ccc(-c2ccn(-c3cccc(C(F)(F)F)c3)c2)cc1 [Compound 128, 4-[1-(3-Trifluoromethyl-phenyl)-1H-pyrrol-3-yl]-benzoic acid] | 209 to 211 |
| CCc1ccc(-n2ccc(-c3ccc(C(=O)O)cc3)c2)cc1 [Compound 129, 4-[1-(4-Ethyl-phenyl)-1H-pyrrol-3-yl]-benzoic acid] | 278 to 280 |
| O=C(O)c1ccc(-c2ccn(-c3ccccc3)c2)cc1 [Compound 130, 4-(1-Phenyl-1H-pyrrol-3-yl)-benzoic acid] | 239 to 241 |

| Structure (SMILES) | melting point [°C] |
| --- | --- |
| O=C(O)c1ccc(-c2ccn(-c3ccc(OC(F)(F)F)cc3)c2)cc1 [Compound 131, 4-[1-(4-Trifluoromethoxy-phenyl)-1H-pyrrol-3-yl]-benzoic acid] | 318 to 320 |
| O=C(O)c1cccc(-c2cnn(-c3ccc(OC(F)(F)F)cc3)c2)c1 [Compound 133, 3-[1-(4-Trifluoromethoxy-phenyl)-1H-pyrazol-4-yl]-benzoic acid] | 213 to 215 |
| O=C(O)c1ccc(-c2cnn(-c3ccc(OC(F)(F)F)cc3)c2)cc1 [Compound 134, 4-[1-(4-Trifluoromethoxy-phenyl)-1H-pyrazol-4-yl]-benzoic acid] | 246 to 248 |
| O=C(O)c1cccc(-n2ncc3c2CCc2ccccc2-3)c1 [Compound 135, 3-(4,5-Dihydro-benzo[e]indazol-3-yl)-benzoic acid] | 273 to 275 |
| O=C(O)c1cccc(-n2ncc3c2Cc2ccccc2-3)c1 [Compound 136, 3-(8H-Indeno[2,1-c]pyrazol-1-yl)-benzoic acid] | 241 to 243 |
| O=C(O)c1cccc(-n2cc3c(n2)-c2ccccc2CC3)c1 [Compound 137, 3-(4,5-Dihydro-benzo[g]indazol-2-yl)-benzoic acid] | 191 to 192 |
| O=C(O)c1cccc(-n2cc3c(n2)-c2ccccc2C3)c1 [Compound 138, 3-(4H-Indeno[1,2-c]pyrazol-2-yl)-benzoic acid] | 249 to 250 |
| COc1ccc2c(c1)Cc1cn(-c3cccc(C(=O)O)c3)nc1-2 [Compound 139, 3-(6-Methoxy-4H-indeno[1,2-c]pyrazol-2-yl)-benzoic acid] | 272 to 273 |
| COc1ccc2c(c1)-c1nn(-c3cccc(C(=O)O)c3)cc1C2 [Compound 140, 3-(7-Methoxy-4H-indeno[1,2-c]pyrazol-2-yl)-benzoic acid] | 225 to 227 |
| O=C(O)c1cccc(-n2cc3c(n2)CCc2ccccc2-3)c1 [Compound 141, 3-(4,5-Dihydro-benzo[e]indazol-2-yl)-benzoic acid] | 233 to 234 |
| COc1ccc2c(c1)CCc1cn(-c3cccc(C(=O)O)c3)nc1-2 [Compound 142, 3-(7-Methoxy-4,5-dihydro-benzo[g]indazol-2-yl)-benzoic acid] | 217 to 218 |
| COc1ccc2c(c1)-c1nn(-c3cccc(C(=O)O)c3)cc1CC2 [Compound 143, 3-(8-Methoxy-4,5-dihydro-benzo[g]indazol-2-yl)-benzoic acid] | 192 to 193 |
| O=C(O)c1cccc(-n2cc3c(n2)-c2ccccc2OC3)c1 [Compound 144, 3-(4H-Chromeno[4,3-c]pyrazol-2-yl)-benzoic acid] | 227 to 228 |
| COc1ccc2c(c1)-c1nn(-c3ccc(C(=O)O)cc3)cc1CC2 [Compound 145, 4-(8-Methoxy-4,5-dihydro-benzo[g]indazol-2-yl)-benzoic acid] | 290 to 292 |
| O=C(O)c1cccc(-n2cc3c(n2)Cc2ccccc2-3)c1 [Compound 146, 3-(8H-Indeno[2,1-c]pyrazol-2-yl)-benzoic acid] | 246 to 248 |
| COc1cccc2c1CCc1cn(-c3cccc(C(=O)O)c3)nc1-2 [Compound 147, 3-(6-Methoxy-4,5-dihydro-benzo[g]indazol-2-yl)-benzoic acid] | 232 to 233 |
| COc1cccc2c1CCc1cn(-c3ccc(C(=O)O)cc3)nc1-2 [Compound 148, 4-(6-Methoxy-4,5-dihydro-benzo[g]indazol-2-yl)-benzoic acid] | 288 to 290 |
| COc1ccc2c(c1)-c1nn(-c3ccc(C(=O)O)cc3)cc1C2 [Compound 149, 4-(7-Methoxy-4H-indeno[1,2-c]pyrazol-2-yl)-benzoic acid] | 304 to 306 |
